Measured values from patent US20230413887A1, “2'-FUCOSYLLACTOSE FOR USE IN STIMULATING F. PRAUSNITZII ABUNDANCE” (FrieslandCampina Nederland B.V., priority 2020, published 2023).
Entries after “also recorded” stand apart in the source; their conditions may differ.

Legend:
[1] = test system: F. prausnitzii; details: cited from earlier work
[2] = test system: Faecalibacterium prausnitzii; assay: in vitro incubation of 2′-FL with fecal inoculum of adult and elderly subjects, 16S rRNA microbiota composition; format: cell-based, human; details: 2′-FL 10 mg/ml, 10% (v/v) fecal inoculum, samples 0-24 h, adults 25-50 yrs and 70-79 yrs
Experimental: A group of twelve randomly contacted adults—three men and three women aged 25-50 yrs and three men and three women aged 70-79 yrs—donated their fecal material for an in vitro study. Anoxically cryo-conserved fecal inoculum was defrosted and transferred to a 96% N2 and 4% H2 filled anaerobic chamber. Incubation of 2′-FL (10 mg/ml) was done with 10% (v/v) fecal inoculum in duplicate, while incubations without fecal inoculum and without carbohydrates served as controls using the standard ileal efflux medium. Samples were collected 0 h, 4 h, 10 h and 24 h after inoculation.
Three aliquots of 1 ml from each culture bottle were then distributed into 1.5 ml Eppendorf tubes. One of these aliquots was heated at 100° C. for 5 min to determine carbohydrates in the supernatant. Afterwards, all samples were centrifuged at 4° C. at 18600 relative centrifugal force (rcf) for 10 min. The supernatants from the other two tubes were pooled and stored at −20° C. for metabolite measurement, while the remaining pellets were stored at −80 C for microbiota composition analysis.
The microbiota composition was determined by sequencing of barcoded 16S ribosomal RNA (rRNA) gene amplicons using Illumina Hiseq2500 (2×150 bp). […]

[3] = test system: F. prausnitzii; details: co-culture with Bifidobacterium longum subsp. infantis; cited from earlier work
[4] = test system: F. prausnitzii; details: rats; cited from earlier work

2′-fucosyllactose [2′-FL]
effect on F. prausnitzii abundance in monocultures [1]: does not affect
abundance of F. prausnitzii as compared to control medium without 2′-FL [2]: increase the abundance; also recorded: higher abundance
effect on F. prausnitzii abundance in co-culture [3]: not able to increase
F. prausnitzii abundance as a result of 2′-FL administration [4]: decrease
